Results as given in patent US10689414B2 (Agios Pharmaceuticals, Inc., priority 2013, dated 2020).

Test system: U87MG cells
Assay: Cellular assay, inhibition of 2-HG production in U87MG cells
Format: cell-based
Conditions: Homo sapiens, U-87 MG, 48 h
In short: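 HT1080 or U87MG cells (U87MG kept with 500 ug/mL G418) seeded at 5000 cells/well and treated with compound at 0.2% final DMSO. Incubated 48 h at 37 °C. 2-HG inhibition determined by LC-MS. Viability read by CellTiter-Glo luminescence at 72 h post-dose.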

| SMILES | IC50 [µM] |
| --- | --- |
| N#Cc1ccnc(N2C(=O)OCC[C@H]2C(=O)N(c2cc(F)cc(F)c2)[C@H](C(=O)NC2CC(F)(F)C2)c2ccccc2Cl)n1 [Compound 154, (S)—N—((S)-1-(2-Chlorophenyl)-2-((3,3-difluorocyclobutyl)amino)-2-oxoethyl)-3-(4-cyanopyrimidin-2-yl)-N-(3,5-difluorophenyl)-2-oxo-1,3-oxazinane-4-carboxamide] | < 0.1 |
| O=C(NC1CC(F)(F)C1)[C@H](c1ccccc1Cl)N(C(=O)[C@@H]1CCC(=O)N1c1cnccn1)c1cccc(F)c1 [Compound 18] | < 0.1 |
| CC(=O)N1CC(=O)N(c2cc(C#N)ccn2)[C@H](C(=O)N(c2cccc(F)c2)[C@H](C(=O)NC2CC(F)(F)C2)c2ccccc2Cl)C1 [Compound 92, (S)-4-Acetyl-N—((S)-1-(2-chlorophenyl)-2-(3,3-difluorocyclobutylamino)-2-oxoethyl)-1-(4-cyanopyridin-2-yl)-N-(3-fluorophenyl)-6-oxopiperazine-2-carboxamide] | < 0.1 |
| N#Cc1ccnc(N2C(=O)CC[C@H]2C(=O)N(c2cccc3[nH]ncc23)C(C(=O)NC2CC(F)(F)C2)c2ccccc2Cl)c1 (stereo partly drawn) [Compound 152, (2S)—N-(1-(2-Chlorophenyl)-2-((3,3-difluorocyclobutyl)amino)-2-oxoethyl)-1-(4-cyanopyridin-2-yl)-N-(1H-indazol-4-yl)-5-oxopyrrolidine-2-carboxamide] | < 0.1 |
| N#Cc1ccnc(N2C(=O)CC[C@H]2C(=O)N(c2cccc(F)c2F)[C@H](C(=O)NC2CC(F)(F)C2)c2ccccc2Cl)c1 [Compound 188, (S)—N—((S)-1-(2-Chlorophenyl)-2-((3,3-difluorocyclobutyl)amino)-2-oxoethyl)-1-(4-cyanopyridin-2-yl)-N-(2,3-difluorophenyl)-5-oxopyrrolidine-2-carboxamide] | < 0.1 |
| CCOC(=O)CN1C[C@@H](C(=O)N(c2cccc(F)c2)C(C(=O)NC2CC(F)(F)C2)c2ccccc2Cl)N(c2nccc(C#N)n2)C1=O (stereo partly drawn) [Compound 111, Ethyl 2-((4S)-4-((1-(2-chlorophenyl)-2-((3,3-difluorocyclobutyl)amino)-2-oxoethyl)(3-fluorophenyl)carbamoyl)-3-(4-cyanopyrimidin-2-yl)-2-oxoimidazolidin-1-yl)acetate] | < 0.1 |
| N#Cc1ccnc(N2C(=O)CC[C@H]2C(=O)N(c2cc(F)cc(F)c2)C(C(=O)NC2CC(F)(F)C2)c2cccc(Cl)c2Cl)c1 (stereo partly drawn) [Compound 195, (2S)-1-(4-Cyanopyridin-2-yl)-N-(1-(2,3-dichlorophenyl)-2-(3,3-difluoro-cyclobutylamino)-2-oxoethyl)-N-(3,5-difluorophenyl)-5-oxopyrrolidine-2-carboxamide] | < 0.1 |
| N#Cc1ccnc(N2C(=O)[C@@H](O)C[C@H]2C(=O)N(c2cccc(F)c2)[C@H](C(=O)NC2CCC(F)(F)CC2)c2ccccc2Cl)n1 [Compound 189, (2S,4S)—N—((S)-1-(2-Chlorophenyl)-2-((4,4-difluorocyclohexyl)amino)-2-oxoethyl)-1-(4-cyanopyrimidin-2-yl)-N-(3-fluorophenyl)-4-hydroxy-5-oxopyrrolidine-2-carboxamide] | < 0.1 |
| N#Cc1ccnc(N2C(=O)OCC[C@H]2C(=O)N(c2cncc(F)c2)[C@H](C(=O)NC2CC(F)(F)C2)c2ccccc2Cl)c1 [Compound 143, (S)—N—((S)-1-(2-Chlorophenyl)-2-((3,3-difluorocyclobutyl)amino)-2-oxoethyl)-3-(4-cyanopyridin-2-yl)-N-(5-fluoropyridin-3-yl)-2-oxo-1,3-oxazinane-4-carboxamide] | < 0.1 |
| N#Cc1ccnc(N2C(=O)CC[C@H]2C(=O)N(c2cc(F)cc(F)c2)[C@H](C(=O)NC2CC(F)(F)C2)c2ccccc2Cl)c1 [Compound 71, (S)—N—((S)-1-(2-Chlorophenyl)-2-((3,3-difluorocyclobutyl)amino)-2-oxoethyl)-1-(4-cyanopyridin-2-yl)-N-(3,5-difluorophenyl)-5-oxopyrrolidine-2-carboxamide] | < 0.1 |
